From ChEMBL document CHEMBL1142165, “Influence on mitochondria and cytotoxicity of different antibiotics administered in high concentrations on primary human osteoblasts and cell lines” (Antimicrob Agents Chemother, 2007)
Converted amounts (≈) assume the structure as drawn. The source made the active and inactive calls. The calls are words filed in the database; no cut-off is given here.

What was measured:
MG-63 [1] = test: Decrease in lactate production in MG63 cells at 400 ug/ml by ELISA; assay type: functional, Homo sapiens; set-up: scale not given: the % may be the effect or the level left
[2] = Antiproliferative effect against primary human osteoblasts assessed as BrdU incorporation into DNA after 48 hrs; assay type: functional, cell-based; conditions: Osteoblast
HeLa [3] = test: Antiproliferative effect against HeLa cells after 48 hrs; assay type: functional, cell-based; conditions: Homo sapiens
MG-63 [4] = test: Antiproliferative effect against MG63 cells assessed as BrdU incorporation into DNA after 48 hrs after 48 hrs; assay type: functional, cell-based; conditions: Homo sapiens, MG-63, 48 h
Osteoblast [5] = test: Increase in lactate production in primary human osteoblasts at 190 ug/ml by ELISA; assay type: functional
HeLa [6] = test: Decrease in lactate production in HeLa cells at 400 ug/ml by ELISA; assay type: functional, Homo sapiens; set-up: scale not given: the % may be the effect or the level left
Osteoblast [7] = test: Increase in lactate production in primary human osteoblasts at 400 ug/ml by ELISA relative to control; assay type: functional
[8] = Cytotoxicity against primary human osteoblasts at 400 ug/ml assessed as LDH release after 24 hrs; conditions: osteoblast, at 400 µg/mL
Osteoblast [9] = test: Inhibition of metabolic activity in primary human osteoblasts in presence of 10% FCS; assay type: functional
Osteoblast [10] = test: Inhibition of metabolic activity in primary human osteoblasts assessed as MTT reduction after 48 hrs; assay type: functional, cell-based
Osteoblast [11] = test: Antiproliferative effect against primary human osteoblasts in presence of 10% FCS; assay type: functional, cell-based
MG-63 [12] = test: Increase in lactate production in MG63 cells at 400 ug/ml by ELISA relative to control; assay type: functional, Homo sapiens
MG-63 [13] = test: Inhibition of metabolic activity in MG63 cells assessed as MTT reduction after 48 hrs; assay type: functional, cell-based; conditions: Homo sapiens, MG-63, 48 h
HeLa [14] = test: Inhibition of metabolic activity in HeLa cells assessed as MTT reduction after 48 hrs; assay type: functional, cell-based; conditions: Homo sapiens
Osteoblast [15] = test: Increase in lactate production in primary human osteoblasts at 10 hrs by ELISA; assay type: functional
Osteoblast [16] = test: Increase in lactate production in primary human osteoblasts above 0.25 uM by ELISA; assay type: functional
MG-63 [17] = test: Increase in lactate production in MG63 cells at 50 nM by ELISA relative to control; assay type: functional, Homo sapiens
Osteoblast [18] = test: Antiproliferative effect against primary human osteoblasts assessed as BrdU incorporation into DNA after 48 hrs after 48 hrs below 1 uM; assay type: functional, cell-based
Osteoblast [19] = test: Inhibition of metabolic activity in primary human osteoblasts by MTT assay below 1 uM; assay type: functional, cell-based
MG-63 [20] = test: Inhibition of metabolic activity in MG63 cells by MTT assay relative to control; assay type: functional, Homo sapiens
Osteoblast [21] = test: Blocking of clindamycin-induced lactate production in primary human osteoblasts at 20 mM by ELISA; assay type: functional, cell-based
Osteoblast [22] = test: Blocking of clindamycin-induced LDH release in primary human osteoblasts at 20mM by ELISA; assay type: functional, cell-based
[23] = Cytotoxicity against primary human osteoblasts at 100 ug/ml assessed as LDH release after 24 hrs; assay type: cell-based; conditions: osteoblast
[24] = Cytotoxicity against primary human osteoblasts at 200 ug/ml assessed as LDH release after 24 hrs; assay type: cell-based; conditions: osteoblast

**Q.** Which results are given for `CN(C)[C@@H]1C(O)=C(C(N)=O)C(=O)[C@@]2(O)C(O)=C3C(=O)c4c(O)cccc4[C@@](C)(O)[C@H]3C[C@@H]12` [TETRACYCLINE]?
**A.** Activity (MG-63 [1]): 50%; IC20 [2]: 60 µg/mL (≈ 135 µM); IC50 [2]: 180 µg/mL (≈ 405 µM); IC20 (HeLa [3]): 200 µg/mL (≈ 450 µM); IC50 (HeLa [3]): > 400 µg/mL; IC20 (MG-63 [4]): 60 µg/mL (≈ 135 µM); IC50 (MG-63 [4]): 180 µg/mL (≈ 405 µM); Activity (Osteoblast [5]): 30%; Activity (HeLa [6]): 50%

**Q.** What does the source list for `CO[C@H]1/C=C/O[C@@]2(C)Oc3c(C)c(O)c4c(O)c(c(/C=N/N5CCN(C)CC5)c(O)c4c3C2=O)NC(=O)/C(C)=C\C=C\[C@H](C)[C@H](O)[C@@H](C)[C@@H](O)[C@@H](C)[C@H](OC(C)=O)[C@@H]1C` [RIFAMPIN]?
**A.** IC20 [2]: 30 µg/mL (≈ 36.5 µM); IC50 [2]: 130 µg/mL (≈ 158 µM); IC20 (HeLa [3]): 180 µg/mL (≈ 219 µM); IC50 (HeLa [3]): 270 µg/mL (≈ 328 µM); IC20 (MG-63 [4]): 120 µg/mL (≈ 146 µM); IC50 (MG-63 [4]): 240 µg/mL (≈ 292 µM); Activity (Osteoblast [7]): 40%

**Q.** Which results are given for `CC[C@H]1OC(=O)[C@H](C)[C@@H](O[C@H]2C[C@@](C)(OC)[C@@H](O)[C@H](C)O2)[C@H](C)[C@@H](O[C@@H]2O[C@H](C)C[C@H](N(C)C)[C@H]2O)[C@](C)(O)C[C@@H](C)C(=O)[C@H](C)[C@@H](O)[C@]1(C)O` [ERYTHROMYCIN]?
**A.** Activity [8]: 40%; IC20 (Osteoblast [9]): 11 µg/mL; IC20 [2]: 30 µg/mL (≈ 40.9 µM); IC50 [2]: 180 µg/mL (≈ 245 µM); IC20 (HeLa [3]): 210 µg/mL (≈ 286 µM); IC50 (HeLa [3]): > 400 µg/mL; IC20 (Osteoblast [10]): 210 µg/mL (≈ 286 µM); IC50 (Osteoblast [10]): > 400 µg/mL; Activity (Osteoblast [11]): Active; IC20 (MG-63 [4]): 130 µg/mL (≈ 177 µM); IC50 (MG-63 [4]): 300 µg/mL (≈ 409 µM); Activity (MG-63 [12]): 60%; IC20 (MG-63 [13]): 180 µg/mL (≈ 245 µM); IC50 (MG-63 [13]): 310 µg/mL (≈ 422 µM); IC20 (HeLa [14]): 110 µg/mL (≈ 150 µM); IC50 (HeLa [14]): 170 µg/mL (≈ 232 µM)

**Q.** For `CCCCCC[C@H]1C(=O)O[C@H](C)[C@H](NC(=O)c2cccc(NC=O)c2O)C(=O)O[C@@H](C)[C@@H]1OC(=O)CC(C)C` [ANTIMYCIN A], which Activity (Osteoblast [15]) is on record?
**A.** The Activity was 14 µmol.

**Q.** What about the Activity (Osteoblast [16]) of the same compound?
**A.** The Activity was 150%.

**Q.** What about the Activity (MG-63 [17]) of the same compound?
**A.** The Activity was 50%.

**Q.** And the Activity (Osteoblast [18])?
**A.** The Activity was “inactive”.

**Q.** What about the Activity (Osteoblast [19]) of the same compound?
**A.** The Activity was “inactive”.

**Q.** What about the Inhibition (MG-63 [20]) of the same compound?
**A.** Its Inhibition is 70%.

**Q.** With `Nc1ncnc2c1ncn2[C@@H]1O[C@H](CO)[C@@H](O)[C@H]1O` as the compound, how does the Activity (Osteoblast [21]) read?
**A.** Its Activity is “Active”.

**Q.** What about the Activity (Osteoblast [22]) of the same compound?
**A.** The Activity was “Active”.

**Q.** With `CC[C@H]1OC(=O)[C@H](C)[C@@H](O[C@H]2C[C@@](C)(OC)[C@@H](O)[C@H](C)O2)[C@H](C)[C@@H](O[C@@H]2O[C@H](C)C[C@H](N(C)C)[C@H]2O)[C@](C)(O)C[C@@H](C)/C(=N\OCOCCOC)[C@H](C)[C@@H](O)[C@]1(C)O` [ROXITHROMYCIN] as the compound, how does the Activity [23] read?
**A.** The Activity was 20%.

**Q.** What about the Activity [8] of the same compound?
**A.** Its Activity is 40%.

**Q.** And the IC20 [2]?
**A.** Its IC20 is 20 µg/mL (≈ 23.9 µM).

**Q.** And the IC50 [2]?
**A.** The IC50 was 70 µg/mL (≈ 83.6 µM).

**Q.** And the IC20 (HeLa [3])?
**A.** The IC20 was 100 µg/mL (≈ 119 µM).

**Q.** And the IC50 (HeLa [3])?
**A.** Its IC50 is 160 µg/mL (≈ 191 µM).

**Q.** And the IC20 (Osteoblast [10])?
**A.** Its IC20 is 110 µg/mL (≈ 131 µM).

**Q.** And the IC50 (Osteoblast [10])?
**A.** Its IC50 is 210 µg/mL (≈ 251 µM).

**Q.** What about the IC20 (MG-63 [4]) of the same compound?
**A.** The IC20 was 50 µg/mL (≈ 59.7 µM).

**Q.** What about the IC50 (MG-63 [4]) of the same compound?
**A.** Its IC50 is 180 µg/mL (≈ 215 µM).

**Q.** And the Activity [24]?
**A.** The Activity was 30%.

**Q.** What about the IC20 (MG-63 [13]) of the same compound?
**A.** Its IC20 is 50 µg/mL (≈ 59.7 µM).

**Q.** And the IC50 (MG-63 [13])?
**A.** The IC50 was 110 µg/mL (≈ 131 µM).

**Q.** What about the IC20 (HeLa [14]) of the same compound?
**A.** The IC20 was 30 µg/mL (≈ 35.8 µM).

**Q.** And the IC50 (HeLa [14])?
**A.** Its IC50 is 90 µg/mL (≈ 108 µM).

**Q.** For GENTAMICIN, which Activity (Osteoblast [11]) is on record?
**A.** Its Activity is “inactive”.
